Laboratory results: article PMC6405172, “In vitro activity and mode of action of phenolic compounds on Leishmania donovani” (PLoS Neglected Tropical Diseases, 2019)
Like-named read-outs stand apart in the source and are kept apart here.

Tests used:
Type in all cases: cell-based
[1] = Cytotoxicity of compounds on mammalian cells (MTT); settings: mouse, Raw 264.7 cells, read-out: Macrophages CC50 (μM) ±SD
Method: Raw 264.7 cells were seeded into 96-well plates at (1 x 10^6 cells) in DMEM supplemented with 10% FBS, 100 μg/mL streptomycin, 100 u/mL penicillin-G, 2g/L NaHCO3 and incubated at 37°C for 24 hours in 5% CO2. The cells were treated with 0–50 μg/mL concentrations of the phenolic compounds for 48 hours at 37°C in 5% CO2. Deferoxamine and amphotericin B at 0–50 μg/mL concentrations were used as positive controls. Cell viability was estimated by measuring the mitochondria oxidative activity by MTT assay and absorbance was read at 570 nm using Thermo Scientific Varioskan LUX. Selectivity index (SI) was calculated as the ratio of the CC50 to IC50 values.

[2] = system: Leishmania donovani intracellular amastigotes; test: Intracellular amastigote assay in infected RAW 264.7 cells; settings: for IC50: Leishmania donovani; for Selectivity Index (CC50/IC50), amastigotes: CC50 Raw 264.7 / IC50 intracellular amastigotes
Method: Amastigote cultures were prepared as reported by Jain and colleagues. Briefly, Raw 264.7 cells (4 x 10^7 cells) were seeded in 4 chamber slides and 1 x 10^7 cells in 96 well plates and incubated for 24 hours at 37°C in 5% CO2. The RAW 264.7 cells were infected with metacyclic promastigotes (1 x 10^8 cells) at an infection ratio of 1:10 macrophage: parasites and incubated for 24 hours at 37°C in 5% CO2. The overlying medium was removed, and the monolayer intracellular amastigotes were carefully washed four times with serum free M199 to remove free parasites. Freshly prepared M199 containing 10% FBS and the test compounds at concentrations ranging from 0–50 μg/mL were added to the infected cells and incubated for 48 hours at 37°C in 5% CO2. Triplicate incubations were performed in all the experiments. The chamber slides were washed thrice after incubation with M199 without FBS. The slides were then fixed in absolute methanol for 30 sec, rehydrated in 1x PBS for 5 min and stained with DAPI for 15 min. The slides were viewed by fluorescence microscopy and the number of infected macrophages counted using ImageJ Software to determine the infectivity index and IC50 values for amastigotes.
The infected RAW 264.7 cells in the 96 wells microtiter plates were also incubated for 48 hours and washed thrice as above. Sodium dodecyl sulfate (SDS) of concentration 0.05% was added to the wells for 30 sec for controlled lysis with M199 and 10% FBS. After the 30 sec, M199 with 10% FBS was added and the plates incubated at 25°C for 72 hours for the differentiation of the rescued amastigotes to promastigotes. Following incubation, the amastigotes were subjected to MTT assay and the absorbance obtained were used to estimate IC50 values of the compounds against the amastigote forms.

[3] = system: Leishmania donovani promastigotes; test: Promastigote viability assay (MTT); settings: for Selectivity Index (CC50/IC50), promastigotes: CC50 Raw 264.7 / IC50 promastigotes; for IC50: Leishmania donovani, read-out: Promastigotes IC50 (μM) ± SD
Method: The MTT assay was done as previously described. Briefly, promastigotes (2 x 10^5 cells) were cultured in freshly prepared M-199 medium supplemented with 10% heat inactivated fetal bovine serum in the presence or absence of varying concentrations of the phenolic compounds (0–50 μg/mL) for 72 hours at 25°C. Amphotericin B (0–50 μg/mL) and deferoxamine (0–50 μg/mL) were used as positive controls. After incubation, 5 mg/mL MTT solution was added to the promastigotes in each well and incubated for 3 hours at 25°C. In this assay, the yellow tetrazolium MTT dye was reduced to insoluble formazan crystals (purple color) in living cells using NADH as their reducing agent. Formazan crystals formed after incubation were solubilized with acidified isopropanol and incubated at 37°C for 30 min. The change in color from yellow to purple was read at an absorbance of 570 nm using Thermo Scientific Varioskan LUX. The cell viability and IC50 were determined from the concentration response curve generated using GraphPad Prism 6.0 Software.

[4] = RAW264.7, intracellular amastigotes in RAW 264.7 cells, 48 hours, read-out: Amastigotes IC50 (μM) ± SD

O=C(O)c1ccc(O)c(O)c1 [Protocatechuic acid, protocatechuic acid]
CC50 at 48 h [1]: 511.9 ± 0.01 µM | IC50 ([2]; RAW264.7, 48 h, read-out: Amastigotes IC50 (μM) ± SD, intracellular amastigotes in RAW 264.7 cells, 48 hours): > 100 µM | Selectivity Index (CC50/IC50), promastigotes [3]: 7.05 | IC50 ([3]; 72 h): 72.54 ± 0.01 µM

O=C(O)C=Cc1ccc(O)cc1 [p-Coumaric acid]
CC50 at 48 h [1]: 322.6 ± 0.15 µM | IC50 [2, 4]: > 100 µM | Selectivity Index (CC50/IC50), promastigotes [3]: 4.24 | IC50 ([3]; MTT, 72 hours at 25°C): 76.09 ± 0.01 µM

COc1cc(/C=C/C(=O)O)ccc1O [Ferulic acid, ferulic acid]
CC50 at 48 h [1]: 346.7 ± 0.01 µM | Selectivity Index (CC50/IC50), amastigotes [2]: 6.30 | IC50 ([2]; RAW264.7, 48 h, intracellular amastigotes in RAW 264.7 cells, 48 hours, read-out: Amastigotes IC50 (μM) ± SD): 54.98 ± 0.01 µM | Selectivity Index (CC50/IC50), promastigotes [3]: 5.02 | IC50 ([3]; MTT, 72 hours at 25°C): 69 ± 0.01 µM

O=C(O)/C=C/c1ccc(O)c(O)c1 [Caffeic acid, caffeic acid]
CC50 at 48 h ([1]; Raw 264.7 macrophage cells): 129.92 ± 0.01 µM | Selectivity Index (CC50/IC50), amastigotes [2]: 2.29 | IC50 [2, 4]: 56.77 ± 0.01 µM | Selectivity Index (CC50/IC50), promastigotes [3]: 2.21 | IC50 ([3]; MTT, 72 hours at 25°C): 58.77 ± 0.01 µM

O=C(O)c1cc(O)c(O)c(O)c1 [Gallic acid, gallic acid]
CC50 at 48 h [1]: 33.76 ± 0.02 µM | Selectivity Index (CC50/IC50), amastigotes [2]: 0.60 | IC50 [2, 4]: 54.65 ± 0.25 µM | Selectivity Index (CC50/IC50), promastigotes [3]: 0.17 | IC50 ([3]; MTT, 72 hours at 25°C): 198 ± 0.03 µM

O=C(/C=C/c1ccc(O)c(O)c1)O[C@@H]1C[C@](O)(C(=O)O)C[C@@H](O)[C@H]1O [Chlorogenic acid, chlorogenic acid]
CC50 at 48 h ([1]; Raw 264.7 macrophage cells): 59.9 ± 0.02 µM | Selectivity Index (CC50/IC50), amastigotes [2]: 1.11 | IC50 [2, 4]: 53.75 ± 0.4 µM | Selectivity Index (CC50/IC50), promastigotes [3]: 1.11 | IC50 ([3]; MTT, 72 hours at 25°C): 53.92 ± 0.03 µM

O=C(O)c1ccccc1O [Salicylic acid, salicylic acid]
CC50 at 48 h ([1]; Raw 264.7 macrophage cells): 62.99 ± 0.01 µM | Selectivity Index (CC50/IC50), amastigotes [2]: 0.69 | IC50 [2, 4]: 90.65 ± 0.04 µM | Selectivity Index (CC50/IC50), promastigotes [3]: 0.83 | IC50 ([3]; MTT, 72 hours at 25°C): 75.4 ± 0.02 µM

COc1cc(C(=O)O)ccc1O [Vanillic acid, vanillic acid]
CC50 at 48 h [1]: 13.15 ± 0.01 µM | Selectivity Index (CC50/IC50), amastigotes [2]: 0.19 | IC50 [2, 4]: 69.97 ± 0.02 µM | Selectivity Index (CC50/IC50), promastigotes [3]: 0.19 | IC50 ([3]; MTT, 72 hours at 25°C): 68.97 ± 0.02 µM
